# Results taken from ChEMBL document CHEMBL1811787, “Identification of the binding modes of N-phenylphthalimides inhibiting bacterial thymidylate synthase through X-ray crystallography screening” (J Med Chem, 2011).
# Active and inactive are the calls of the source. No cut-off for these calls is given here.
# Target: T1, Thymidylate synthase (Lactobacillus casei) (UniProt P00469)
# T1 sequence (whole entry): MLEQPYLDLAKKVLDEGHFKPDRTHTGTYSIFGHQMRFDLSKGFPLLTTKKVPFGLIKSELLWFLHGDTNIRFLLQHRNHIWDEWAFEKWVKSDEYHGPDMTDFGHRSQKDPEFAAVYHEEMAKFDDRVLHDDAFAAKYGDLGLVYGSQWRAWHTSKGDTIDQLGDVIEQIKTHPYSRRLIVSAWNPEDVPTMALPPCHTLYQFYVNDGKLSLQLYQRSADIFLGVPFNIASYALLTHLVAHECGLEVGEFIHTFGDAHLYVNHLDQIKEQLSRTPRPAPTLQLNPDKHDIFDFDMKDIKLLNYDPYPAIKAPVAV
# Assay: Inhibition of Lactobacillus casei thymidylate synthase using N5,N10-methylene tetrahydrofolate at 50 uM by chromogenic assay
# Conditions: Lacticaseibacillus casei
row,inhibition,Structure (SMILES)
1,inactive,Cc1cccc2c1C(=O)OC2=O

# Target: T2, Thymidylate synthase (Homo sapiens, UniProt P04818)
# Conditions: not given
# Target sequence in this assay (P04818 whole entry): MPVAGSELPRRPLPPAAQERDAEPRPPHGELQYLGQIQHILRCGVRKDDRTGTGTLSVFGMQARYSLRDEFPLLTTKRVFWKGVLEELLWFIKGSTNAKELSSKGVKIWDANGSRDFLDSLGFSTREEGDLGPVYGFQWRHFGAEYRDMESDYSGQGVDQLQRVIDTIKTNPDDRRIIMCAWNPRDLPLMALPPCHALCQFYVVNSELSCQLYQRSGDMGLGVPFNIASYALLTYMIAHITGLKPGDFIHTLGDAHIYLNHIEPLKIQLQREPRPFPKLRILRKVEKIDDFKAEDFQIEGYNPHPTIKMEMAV
row,Ki,Structure (SMILES)
1,206 µM,Cc1cccc2c1C(=O)N(c1ccc(-n3ccnc3)cc1)C2=O

# Target: T2, Thymidylate synthase
# Assay: Inhibition of human thymidylate synthase using N5,N10-methylene tetrahydrofolate at 50 uM by chromogenic assay
# Conditions: not given
# Target sequence in this assay (P04818 2-313 limits assumed): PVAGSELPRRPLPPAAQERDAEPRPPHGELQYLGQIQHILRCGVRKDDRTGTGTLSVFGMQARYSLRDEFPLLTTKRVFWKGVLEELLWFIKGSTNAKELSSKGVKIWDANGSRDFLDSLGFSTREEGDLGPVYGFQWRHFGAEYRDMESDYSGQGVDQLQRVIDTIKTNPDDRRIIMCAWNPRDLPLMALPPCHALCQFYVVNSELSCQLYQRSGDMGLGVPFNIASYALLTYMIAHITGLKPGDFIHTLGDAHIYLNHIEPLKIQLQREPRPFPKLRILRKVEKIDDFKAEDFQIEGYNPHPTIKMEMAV
row,Structure (SMILES),inhibition
1,CN1C(=O)c2cccc(CNc3ccc([N+](=O)[O-])c4ccccc34)c2C1=O,inactive
2,Cc1cccc2c1C(=O)N(c1nccs1)C2=O,inactive
3,CN1C(=O)c2cccc(CNc3ccc(C(=O)c4ccccc4)cc3)c2C1=O,inactive
4,Cc1cccc2c1C(=O)N(c1cccc3[nH]ccc13)C2=O,inactive
5,CN1C(=O)c2cccc(CNc3ccc(C(=O)O)cn3)c2C1=O,inactive
6,CN1C(=O)c2cccc(CNc3ccc(C#N)cc3)c2C1=O,inactive
7,CCOC(=O)c1ccc(NCc2cccc3c2C(=O)N(C)C3=O)cc1,inactive
8,Cc1cccc2c1C(=O)N(CCc1cccs1)C2=O,inactive
9,CN1C(=O)c2cccc(CNCCP(=O)(O)O)c2C1=O,inactive
10,CN1C(=O)c2cccc(CNc3cccc(S(N)(=O)=O)c3)c2C1=O,inactive
11,Cc1cc(N2C(=O)c3cccc(C)c3C2=O)ccc1N1C(=O)c2ccc(Cl)cc2C1=O,inactive
12,CN1C(=O)c2cccc(CNCCc3cccs3)c2C1=O,inactive
13,Cc1cccc2c1C(=O)N(c1ccnc(Cl)c1)C2=O,inactive
14,Cc1cccc2c1C(=O)OC2=O,inactive
15,CN1C(=O)c2cccc(CBr)c2C1=O,inactive

# More lines, now with the values ahead:
row,inhibition,Structure (SMILES)
1,inactive,Cc1cccc2c1C(=O)N(c1cccc(O)c1)C2=O
2,inactive,Cc1cccc2c1C(=O)N(c1ccc(C#N)cc1)C2=O
3,inactive,Cc1cccc2c1C(=O)N(c1ccc(C(=N)N)cc1)C2=O
4,inactive,Cc1cccc2c1C(=O)N(c1cc(C(=O)O)cc(C(=O)O)c1)C2=O
5,inactive,Cc1cccc2c1C(=O)N(c1ccc(C(F)(F)F)cc1)C2=O
6,inactive,CC(=O)c1ccc(N2C(=O)c3cccc(C)c3C2=O)cc1

# Target: T3, Thymidylate synthase (Enterococcus faecalis (strain ATCC 700802 / V583), UniProt Q834R3)
# T3 sequence (Q834R3 whole entry): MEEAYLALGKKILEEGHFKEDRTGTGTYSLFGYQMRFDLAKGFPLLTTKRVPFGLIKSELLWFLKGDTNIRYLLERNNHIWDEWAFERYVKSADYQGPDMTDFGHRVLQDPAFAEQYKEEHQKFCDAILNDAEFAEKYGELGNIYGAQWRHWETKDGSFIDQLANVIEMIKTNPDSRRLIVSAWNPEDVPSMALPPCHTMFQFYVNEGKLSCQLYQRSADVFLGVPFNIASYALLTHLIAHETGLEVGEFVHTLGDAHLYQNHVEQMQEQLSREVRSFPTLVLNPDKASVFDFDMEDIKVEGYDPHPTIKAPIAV
# Assay: Inhibition of Enterococcus faecalis thymidylate synthase using N5,N10-methylene tetrahydrofolate by chromogenic assay
# Conditions: not given
row,Structure (SMILES),Ki
1,Cc1cccc2c1C(=O)N(c1nccs1)C2=O,11 µM
2,COCCCNCc1cccc2c1C(=O)N(C)C2=O,183 µM
3,Cc1cccc2c1C(=O)N(c1cccc3[nH]ccc13)C2=O,26 µM
4,CCOC(=O)c1ccc(NCc2cccc3c2C(=O)N(C)C3=O)cc1,109 µM
5,Cc1cccc2c1C(=O)N(c1ccc(-n3ccnc3)cc1)C2=O,33 µM
6,Cc1cccc2c1C(=O)N(c1ccnc(Cl)c1)C2=O,7 µM

# Results, then the molecule that gave them:
row,Ki,Structure (SMILES)
1,61 µM,Cc1cccc2c1C(=O)N(c1cccc(O)c1)C2=O
2,8 µM,Cc1cccc2c1C(=O)N(c1ccc(C#N)cc1)C2=O
3,60 µM,Cc1cccc2c1C(=O)N(c1ccc(C(F)(F)F)cc1)C2=O
4,11 µM,Cc1cccc2c1C(=O)N(c1ccc(C(=O)NCC(=O)O)cc1)C2=O
5,2 µM,Cc1cccc2c1C(=O)N(c1cc(-c3ccccc3)ccc1O)C2=O

# Target: T4, Thymidylate synthase (Enterococcus faecalis (strain ATCC 700802 / V583)) (UniProt Q834R3)
# T4 sequence (whole entry): T3 sequence (Q834R3 whole entry)
# Assay: Inhibition of Enterococcus faecalis thymidylate synthase using N5,N10-methylene tetrahydrofolate at 50 uM by chromogenic assay
# Conditions: not given
row,Structure (SMILES),inhibition
1,CN1C(=O)c2cccc(CNc3ccc([N+](=O)[O-])c4ccccc34)c2C1=O,inactive
2,CN1C(=O)c2cccc(CNc3ccc(C(=O)c4ccccc4)cc3)c2C1=O,inactive
3,CN1C(=O)c2cccc(CNc3ccc(C(=O)O)cn3)c2C1=O,inactive
4,CN1C(=O)c2cccc(CNc3ccc(C#N)cc3)c2C1=O,inactive
5,Cc1cccc2c1C(=O)N(CCc1cccs1)C2=O,inactive
6,CN1C(=O)c2cccc(CNCCP(=O)(O)O)c2C1=O,inactive
7,CN1C(=O)c2cccc(CNc3cccc(S(N)(=O)=O)c3)c2C1=O,inactive
8,CN1C(=O)c2cccc(CNc3ccc(S(=O)(=O)O)cc3)c2C1=O,inactive
9,Cc1cc(N2C(=O)c3cccc(C)c3C2=O)ccc1N1C(=O)c2ccc(Cl)cc2C1=O,inactive
10,CN1C(=O)c2cccc(CNCCc3cccs3)c2C1=O,inactive
11,Cc1cccc2c1C(=O)OC2=O,inactive
12,CN1C(=O)c2cccc(CBr)c2C1=O,inactive

# Further lines, results first:
row,inhibition,Structure (SMILES)
1,inactive,Cc1cccc2c1C(=O)N(c1ccc(C(=N)N)cc1)C2=O
2,inactive,Cc1cccc2c1C(=O)N(c1cc(C(=O)O)cc(C(=O)O)c1)C2=O
3,inactive,Cc1cccc2c1C(=O)N(c1ccc(C(=O)O)c(O)c1)C2=O
4,inactive,CC(=O)c1ccc(N2C(=O)c3cccc(C)c3C2=O)cc1
5,inactive,Cc1cccc2c1C(=O)N(c1cccc(C(=O)O)c1)C2=O

# Tested on: not listed separately
# Assay: Inhibition of Escherichia coli thymidylate synthase using N5,N10-methylene tetrahydrofolate by chromogenic assay
# Conditions: not given
row,Structure (SMILES),Ki
1,CN1C(=O)c2cccc(CNc3ccc([N+](=O)[O-])c4ccccc34)c2C1=O,92 µM
2,Cc1cccc2c1C(=O)N(c1ccc(C#N)cc1)C2=O,31 µM
3,CN1C(=O)c2cccc(CNc3ccc(C(=O)c4ccccc4)cc3)c2C1=O,82 µM
4,Cc1cccc2c1C(=O)N(c1ccc(C(F)(F)F)cc1)C2=O,18 µM
5,Cc1cccc2c1C(=O)N(c1ccc(C(=O)O)c(O)c1)C2=O,36 µM
6,CC(=O)c1ccc(N2C(=O)c3cccc(C)c3C2=O)cc1,41 µM
7,O=C1OC(c2ccc(O)c(Cl)c2)(c2ccc(O)c(Cl)c2)c2cccc3cccc1c23,0.6 µM
8,Cc1cccc2c1C(=O)N(c1ccc(C(=O)NCC(=O)O)cc1)C2=O,42 µM
9,Cc1cccc2c1C(=O)N(c1cc(-c3ccccc3)ccc1O)C2=O,3 µM
10,CN1C(=O)c2cccc(CNCCP(=O)(O)O)c2C1=O,14 µM
11,CN1C(=O)c2cccc(CNc3ccc(S(=O)(=O)O)cc3)c2C1=O,42 µM
12,Cc1cc(N2C(=O)c3cccc(C)c3C2=O)ccc1N1C(=O)c2ccc(Cl)cc2C1=O,33 µM
13,CN1C(=O)c2cccc(CNCCc3cccs3)c2C1=O,61 µM
14,Cc1cccc2c1C(=O)N(c1ccnc(Cl)c1)C2=O,111 µM
15,Cc1cccc2c1C(=O)OC2=O,49 µM

# Target: T5, Thymidylate synthase (Lactobacillus casei, UniProt P00469)
# T5 sequence (P00469 whole entry): T1 sequence (whole entry)
# Assay: Inhibition of Lactobacillus casei thymidylate synthase using N5,N10-methylene tetrahydrofolate by chromogenic assay
# Design: species or system Lacticaseibacillus casei
# Conditions: not given
row,Structure (SMILES),Ki
1,CN1C(=O)c2cccc(CNc3ccc([N+](=O)[O-])c4ccccc34)c2C1=O,10 µM
2,Cc1cccc2c1C(=O)N(c1nccs1)C2=O,3 µM
3,COCCCNCc1cccc2c1C(=O)N(C)C2=O,41 µM
4,CN1C(=O)c2cccc(CNc3ccc(C(=O)c4ccccc4)cc3)c2C1=O,14 µM
5,Cc1cccc2c1C(=O)N(c1cccc3[nH]ccc13)C2=O,25 µM
6,CN1C(=O)c2cccc(CNc3ccc(C(=O)O)cn3)c2C1=O,27 µM
7,CN1C(=O)c2cccc(CNc3ccc(C#N)cc3)c2C1=O,51 µM
8,CCOC(=O)c1ccc(NCc2cccc3c2C(=O)N(C)C3=O)cc1,56 µM
9,Cc1cccc2c1C(=O)N(CCc1cccs1)C2=O,44 µM
10,Cc1cccc2c1C(=O)N(c1ccc(-n3ccnc3)cc1)C2=O,34 µM
11,CN1C(=O)c2cccc(CNc3cccc(S(N)(=O)=O)c3)c2C1=O,38 µM
12,CN1C(=O)c2cccc(CNc3ccc(S(=O)(=O)O)cc3)c2C1=O,33 µM
13,Cc1cc(N2C(=O)c3cccc(C)c3C2=O)ccc1N1C(=O)c2ccc(Cl)cc2C1=O,36 µM
14,Cc1cccc2c1C(=O)N(c1ccnc(Cl)c1)C2=O,23 µM
15,CN1C(=O)c2cccc(CBr)c2C1=O,95 µM

# More lines, now with the values ahead:
row,Ki,Structure (SMILES)
1,93 µM,Cc1cccc2c1C(=O)N(c1cccc(O)c1)C2=O
2,22 µM,Cc1cccc2c1C(=O)N(c1ccc(C#N)cc1)C2=O
3,9 µM,Cc1cccc2c1C(=O)N(c1ccc(C(=N)N)cc1)C2=O
4,20 µM,Cc1cccc2c1C(=O)N(c1cc(C(=O)O)cc(C(=O)O)c1)C2=O
5,14 µM,Cc1cccc2c1C(=O)N(c1ccc(C(F)(F)F)cc1)C2=O
6,14 µM,Cc1cccc2c1C(=O)N(c1ccc(C(=O)O)c(O)c1)C2=O
7,6 µM,CC(=O)c1ccc(N2C(=O)c3cccc(C)c3C2=O)cc1
8,3 µM,Cc1cccc2c1C(=O)N(c1ccc(C(=O)NCC(=O)O)cc1)C2=O
9,3 µM,Cc1cccc2c1C(=O)N(c1cc(-c3ccccc3)ccc1O)C2=O
10,69 µM,Cc1cccc2c1C(=O)N(c1cccc(C(=O)O)c1)C2=O
